Source: patent US20230293560A1, “METHOD FOR MODULATING THE BLADDER MICROBIOME TO IMPROVE BLADDER HEALTH” (Kimberly-Clark Worldwide, Inc., priority 2020, published 2023)

Columns and labels:
E. faecalis = assay: Plate assay screening of prebiotics; assay type: cell-based, Enterococcus faecalis; set-up: key: ++: if growth and fermentation was equal to or greater than the positive control; +: if growth and fermentation was less than the positive control; +: if weak or no growth or fermentation; +^2: Bacteria demonstrated growth but no fermentation on the prebiotic; conditions: E. faecalis KC16-7171-3, Bladder; MRS-based agar with glucose substituted by prebiotic
Procedure: (§1) Most of the prebiotic compounds were initially tested in a high throughput assay screening process, described further in the Test Methods section herein, but three prebiotics (as noted in Table 3) were tested using a plate assay screening process as described in the Test Methods section herein. The prebiotics were tested against the commensal bacterial species of Lactobacillus crispatus, Lactobacillus gasseri, and Lactobacillus jensenii and against the pathogenic bacterial species of Streptococcus anginosus and Enterococcus faecalis as shown in Table 2. The bacterial species were taken from different sources, listed as culture collection, bladder, and vagina. […]
(§2) • 1. […] Bacteria were enumerated on each agar and color changes were recorded. […] Small colonies are counted as S. anginosus and large colonies are counted as L. crispatus. • 10. […]

L. crispatus = assay: Plate assay screening of prebiotics; assay type: cell-based, Lactobacillus crispatus; set-up: key: ++: if growth and fermentation was equal to or greater than the positive control; +: if growth and fermentation was less than the positive control; +: if weak or no growth or fermentation; +^2: Bacteria demonstrated growth but no fermentation on the prebiotic; conditions: MRS-based agar with glucose substituted by prebiotic
Procedure: as §1, §2

S. anginosus = assay: Plate assay screening of prebiotics; assay type: cell-based, Streptococcus anginosus; set-up: key: ++: if growth and fermentation was equal to or greater than the positive control; +: if growth and fermentation was less than the positive control; +: if weak or no growth or fermentation; +^2: Bacteria demonstrated growth but no fermentation on the prebiotic; conditions: S. anginosus KC18-1131-3B, Bladder; MRS-based agar with glucose substituted by prebiotic
Procedure: as §1, §2

L. jensenii = assay: Plate assay screening of prebiotics; assay type: cell-based, Lactobacillus jensenii; set-up: key: ++: if growth and fermentation was equal to or greater than the positive control; +: if growth and fermentation was less than the positive control; +: if weak or no growth or fermentation; +^2: Bacteria demonstrated growth but no fermentation on the prebiotic; conditions: L. jensenii KC17-4297-18, Bladder; MRS-based agar with glucose substituted by prebiotic
Procedure: as §1, §2

E. coli = assay: Additional prebiotic screening against E. coli (plate assay); assay type: cell-based, Escherichia coli
Text: Additional screening of three prebiotic compounds of alpha-methyl-D-glucoside, isomaltulose, and alpha cyclodextrin was completed against pathogenic bacteria species Escherichia coli from both bladder and vaginal sources, as shown in Table 4. The growth of the bacterial species for this additional screening process against E. coli was not compared to growth of a control as in the screening process documented in Table 3, but was documented based on growth or no growth for the number of samples tested.
• 1. An in house bacterial agar was created based on MRS agar (Kaplan and Hutkins, 2000) where the glucose is substituted for the prebiotic to be tested (either dextran MW ˜6,000, alpha-cyclodextrin, glucomannan, or pectin), bromocresol purple was included as a pH indicator. • 2. Bacteria were enumerated on each agar and color changes were recorded. Method for Competition Assay (Modified from “In Vitro Evaluation of Nutrients that Selectively Confer a Competitive Advantage to Lactobacilli” Vongsa et al, Beneficial Microbes 2016) • 1. Create 2% w/v stock of prebiotic or positive control (glucose/dextrose) as described above. • 2. From a freezer stock subculture the bacteria twice into De Man, Rogosa and Sharpe (MRS) broth (BD Difco, Becton Dickinson, Franklin Lakes, NJ), 37° C., stationary, anaerobic, overnight. • 3. From the last subculture, plate onto an MRS agar plate for L. crispatus KC18-1173-1 or blood agar for S. anginosus KC18-1131-3B, grow 37° C., stationary, anaerobic, overnight. • 4. Create a bacterial suspension by using a sterile tipped swab to transfer colonies of bacteria into a PBS suspension blank to a 2 MacFarland for both species. • 5. Enumerate the starting culture. • 6. Add 9.8 mL of prebiotic media into a 15 mL conical tube. • 7. Add 100 μL of the diluted bacteria to the media, incubate at 37° C., anaerobic, 48 hours. • 8. Harvest 100 μL from the tube containing the prebiotic and plate onto MRS agar and tryptic soy agar (TSA). • 9. […] Small colonies are counted as S. anginosus and large colonies are counted as L. crispatus. • 10. […]

[1] = test system: commensal and pathogenic bacterial species; assay: Prebiotic screening, summary in words across species; assay type: cell-based; conditions: commensal (L. crispatus, L. gasseri, L. jensenii) and pathogenic (S. anginosus, E. faecalis) species
How it was run: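 Prebiotics at 2% w/v stock in API 50 CHL medium with bromocresol purple, inoculated with bacteria and read every 20 min for 24-48 h at OD430/590 (fermentation) and OD660 (growth), scored against a glucose control. Some tested on MRS-based agar with the prebiotic in place of glucose; competition assay with L. crispatus and S. anginosus incubated 48 h anaerobically at 37 °C, then enumerated on MRS and TSA.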

[2] = E. coli KC17-3970-4, Vagina, of 1 tested

OC[C@H]1O[C@@H]2O[C@H]3[C@H](O)[C@@H](O)[C@@H](O[C@H]4[C@H](O)[C@@H](O)[C@@H](O[C@H]5[C@H](O)[C@@H](O)[C@@H](O[C@H]6[C@H](O)[C@@H](O)[C@@H](O[C@H]7[C@H](O)[C@@H](O)[C@@H](O[C@H]1[C@H](O)[C@H]2O)O[C@@H]7CO)O[C@@H]6CO)O[C@@H]5CO)O[C@@H]4CO)O[C@@H]3CO [Alpha Cyclodextrin, Alpha-Cyclodextrin]
growth and fermentation vs positive control, Ef-2 (plate assay) (E. faecalis): +
growth and fermentation vs positive control, Lc-2 (plate assay) (L. crispatus; L. crispatus KC16-7134-3C, Bladder): +
growth and fermentation vs positive control, Lc-3 (plate assay) (L. crispatus; L. crispatus KC18-1173-1, Bladder): +^2
growth and fermentation vs positive control, Sa-2 (plate assay) (S. anginosus): +
growth and fermentation vs positive control, Lj-1 (plate assay) (L. jensenii): +
# fermented, Ec-3 (plate assay) (E. coli; [2]): 0
# grew, Ec-3 (plate assay) (E. coli; [2]): 1
growth of E. coli Ec-3, in words (E. coli; the one E. coli species tested (Ec-3), vaginal source): did grow
overall outcome of the screening of Table 3, in words [1]: growing at least some of the commensal bacterial species and either having less growth than the positive control or almost no growth of the pathogenic bacterial species
